# Assay results as given in publication PMC3908613 (Bioscience Reports, 2014).
# Assays:
# GST-Mst1 = target: T1, GST-Mst1 (Homo sapiens, UniProt Q13043); assay: Kinase assay for recombinant Mst1; format: biochemical; settings: 100 μM ATP, myelin basic protein substrate
# T1 construct: GST; purchased DSTT
# T1 sequence (Q13043 1-487): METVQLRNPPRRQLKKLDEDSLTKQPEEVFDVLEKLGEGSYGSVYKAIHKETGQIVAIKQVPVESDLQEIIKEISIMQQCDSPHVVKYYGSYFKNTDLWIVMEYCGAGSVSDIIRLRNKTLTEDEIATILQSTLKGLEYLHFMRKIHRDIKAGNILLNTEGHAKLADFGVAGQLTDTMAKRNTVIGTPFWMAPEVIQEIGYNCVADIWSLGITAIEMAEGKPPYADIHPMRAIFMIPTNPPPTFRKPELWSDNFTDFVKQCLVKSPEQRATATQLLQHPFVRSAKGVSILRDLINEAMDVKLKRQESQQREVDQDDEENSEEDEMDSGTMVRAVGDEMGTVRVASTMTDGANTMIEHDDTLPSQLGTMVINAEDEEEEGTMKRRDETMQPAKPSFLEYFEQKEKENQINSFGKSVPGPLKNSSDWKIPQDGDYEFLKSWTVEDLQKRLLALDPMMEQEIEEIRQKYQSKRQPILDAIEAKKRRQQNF
# Description: (§9) The kinase reaction for Lok and Slk was supplemented with 12.5 mM sodium glycerophosphate and 0.25 mM sodium orthovanadate. The reactions were incubated for 15–20 min at 30°C then terminated and analysed as described previously [14].
# GST-Lok = target: T2, GST-Lok (Homo sapiens, UniProt O94804); assay: Kinase assay for recombinant Lok; format: biochemical; settings: 25 μM ATP, 100 μM AXLTIDE substrate
# T2 construct: GST; purchased DSTT
# T2 sequence (O94804 whole entry): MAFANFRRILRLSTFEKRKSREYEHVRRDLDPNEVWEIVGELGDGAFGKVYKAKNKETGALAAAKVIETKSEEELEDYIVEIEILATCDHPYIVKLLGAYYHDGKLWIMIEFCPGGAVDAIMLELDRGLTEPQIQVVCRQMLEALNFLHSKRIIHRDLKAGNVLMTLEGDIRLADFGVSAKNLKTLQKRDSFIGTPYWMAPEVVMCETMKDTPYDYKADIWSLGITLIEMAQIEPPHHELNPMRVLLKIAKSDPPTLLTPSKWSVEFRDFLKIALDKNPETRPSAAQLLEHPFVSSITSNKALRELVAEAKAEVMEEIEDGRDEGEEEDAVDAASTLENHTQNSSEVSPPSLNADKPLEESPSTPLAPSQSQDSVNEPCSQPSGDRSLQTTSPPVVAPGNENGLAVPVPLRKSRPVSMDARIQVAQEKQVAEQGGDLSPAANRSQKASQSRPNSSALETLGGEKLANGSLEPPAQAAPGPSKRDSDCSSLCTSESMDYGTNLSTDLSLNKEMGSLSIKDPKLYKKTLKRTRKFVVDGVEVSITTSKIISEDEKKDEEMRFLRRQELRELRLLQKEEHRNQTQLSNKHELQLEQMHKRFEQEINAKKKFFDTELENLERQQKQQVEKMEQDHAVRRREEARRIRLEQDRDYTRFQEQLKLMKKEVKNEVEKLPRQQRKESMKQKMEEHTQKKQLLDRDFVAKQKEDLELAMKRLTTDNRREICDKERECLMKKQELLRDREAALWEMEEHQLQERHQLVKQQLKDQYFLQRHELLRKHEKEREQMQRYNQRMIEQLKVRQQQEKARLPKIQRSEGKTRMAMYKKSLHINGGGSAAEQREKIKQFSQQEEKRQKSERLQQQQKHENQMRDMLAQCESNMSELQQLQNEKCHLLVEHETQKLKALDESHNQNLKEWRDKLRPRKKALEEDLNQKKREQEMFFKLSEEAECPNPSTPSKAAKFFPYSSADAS
# Description: as §9
# rSlk = target: T3, rSlk (Homo sapiens, UniProt Q9H2G2); assay: Kinase assay for recombinant Slk; format: biochemical; settings: 25 μM ATP, bovine histone H1 substrate
# T3 construct: purchased Millipore
# Description: as §9
# Rsk2 = target: T4, Rsk2 (Mus musculus, UniProt P18654); assay: Desthiobiotin-ATP probe capture on streptavidin beads, Western blot; format: binding, C57BL/6 mice; settings: 10 μM inhibitor, DC lysate
# T4 construct: recovered on streptavidin beads following desthiobiotin-ATP labelling of DC lysates including Rsk2, Erk1/2 and p38; endogenous in cells; host or cells: mouse spleen-derived dendritic cells (SDC), lysate
# T4 sequence (P18654 whole entry): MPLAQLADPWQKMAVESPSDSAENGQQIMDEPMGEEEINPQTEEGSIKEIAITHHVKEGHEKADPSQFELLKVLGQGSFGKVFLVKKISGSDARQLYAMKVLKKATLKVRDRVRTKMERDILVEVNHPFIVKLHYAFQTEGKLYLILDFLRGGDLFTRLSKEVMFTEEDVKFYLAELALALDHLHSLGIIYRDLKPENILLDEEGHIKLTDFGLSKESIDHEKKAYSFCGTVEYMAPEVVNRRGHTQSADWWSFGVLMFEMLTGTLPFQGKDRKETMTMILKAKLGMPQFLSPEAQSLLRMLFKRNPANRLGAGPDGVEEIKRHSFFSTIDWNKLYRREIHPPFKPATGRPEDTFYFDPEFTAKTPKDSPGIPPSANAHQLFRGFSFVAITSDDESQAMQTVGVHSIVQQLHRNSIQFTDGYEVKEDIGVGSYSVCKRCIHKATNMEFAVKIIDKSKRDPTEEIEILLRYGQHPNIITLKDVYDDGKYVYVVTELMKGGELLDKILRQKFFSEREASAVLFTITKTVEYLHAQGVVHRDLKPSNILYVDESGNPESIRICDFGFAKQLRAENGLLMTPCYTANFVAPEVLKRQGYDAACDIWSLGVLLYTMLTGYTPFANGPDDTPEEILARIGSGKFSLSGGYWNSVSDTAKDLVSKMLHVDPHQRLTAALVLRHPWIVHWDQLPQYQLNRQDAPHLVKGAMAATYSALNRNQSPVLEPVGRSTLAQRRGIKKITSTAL
# Description: SDC were cultured for at least 14 days in RPMI (without arginine and lysine, custom-made by Biosera) containing 10% dialysed FCS (Hyclone) supplemented with 84 mg/l of L-arginine (Sigma) and 40 mg/l L-lysine (Sigma) for the ‘light’ medium or 84 mg/l of L-arginine ^13C6 or ^13C10 and 40 mg/l L-lysine ^13C6 (Cambridge Isotope Laboratory) for the ‘heavy’ medium. Equal numbers (2×10^7) of ‘light’ or ‘heavy’ labelled SDCs were incubated in RPMI containing 0.5% FCS for 3 h in 15 cm dishes. The cells were lysed in the lysis buffer provided in the kit (Pierce). […] Labelling with the desthiobiotin ATP probe, and precipitation with streptavidin beads were performed according to the manufacturer's instructions (Pierce kinase enrichment kit or ActivX™). Equal amount of streptavidin precipitates were separated by electrophoresis as described above and probed with antibodies against Rsk2, Lok (Bethyl), Slk (Bethyl), PLK1 (Calbiochem), p38, Erk2 and Mst1 (from Cell Signaling).
# Mst1 = target: T5, Mst1 (Mus musculus, UniProt Q9JI11); assay: Activity of Mst1 immunoprecipitated from BMDC; format: biochemical, C57BL/6 mice; settings: immunoprecipitates treated with 1 μM D1870; resting and LPS-stimulated DC
# T5 construct: Mst1, Lok and Slk were immunoprecipated from 150 μg, 850 μg and 1 mg of cell lysates respectively; endogenous in cells; host or cells: mouse bone-marrow-derived dendritic cells (BMDC), immunoprecipitate
# T5 sequence (Q9JI11 1-487): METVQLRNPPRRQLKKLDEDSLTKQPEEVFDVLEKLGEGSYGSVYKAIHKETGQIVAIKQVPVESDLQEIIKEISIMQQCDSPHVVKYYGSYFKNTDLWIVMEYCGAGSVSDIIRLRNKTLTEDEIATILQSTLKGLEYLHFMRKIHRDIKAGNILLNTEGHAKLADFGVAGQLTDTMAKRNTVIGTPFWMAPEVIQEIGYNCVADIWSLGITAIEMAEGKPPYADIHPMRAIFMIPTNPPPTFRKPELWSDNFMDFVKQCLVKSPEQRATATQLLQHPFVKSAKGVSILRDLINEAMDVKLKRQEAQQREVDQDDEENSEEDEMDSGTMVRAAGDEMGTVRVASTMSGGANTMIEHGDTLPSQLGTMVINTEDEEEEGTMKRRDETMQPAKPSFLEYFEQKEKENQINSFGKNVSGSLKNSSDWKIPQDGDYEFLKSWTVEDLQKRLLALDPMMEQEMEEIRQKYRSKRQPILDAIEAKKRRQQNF
# Description: (§1) Equal numbers of BMDC (1×10^7/dish) were incubated in 15 cm dishes in RPMI supplemented with 0.3% FCS for 3 h at 37°C then incubated for 30 min with or without 50 ng/ml LPS. The cells were washed once in cold PBS and lysed in the lysis buffer described above. Mst1, Lok and Slk were immunoprecipated from 150 μg, 850 μg and 1 mg of cell lysates respectively with 2 μg of anti-MST1 (Cell Signalling), anti-Slk (Bethyl) or anti-Lok (Bethyl) or control IgG (Santa Cruz Biotech) coupled to G-protein Sepharose (Amersham) for 1 h at 4°C. […] Kinase assays were performed as described above.
# (§2) A combination of SILAC and nucleotide acyl
# (§3) Alexander J. EDGAR*, Matthias TROST†, Colin WATTS*1 and Rossana ZARU*1
# (§4) *Division of Cell Signalling and Immunolog y, University of Dundee, Dow Street, Dundee DD1 5EH, U.K., and †MRC Protein Phosphor ylation and Ubiquitylation Unit, College of Life Sciences, University of Dundee, Dow Street, Dundee DD1 5EH, U.K.
# (§5) Supplementary Table S1 is available at http://www.bioscirep.
# (§6) Mst1, Lok and Slk activities in DC either unstimulated or stimulated with LPS (50 ng/ml) for 30 min at 37 ◦ C. Immuno- […]
# (§7) of triplicate stimulations. *P < 0.05, **P < 0.01, ***P < 0.001, ns not signiﬁcant.
# (§8) 1 Correspondence may be addressed to either of these authors (email c.watts@dundee.ac.uk or r.zaru@dundee.ac.uk). […]
# Lok = target: T6, Lok (Mus musculus, UniProt O55098); assay: Activity of Lok immunoprecipitated from BMDC; format: biochemical, C57BL/6 mice; settings: immunoprecipitates treated with 1 μM D1870; resting and LPS-stimulated DC
# T6 construct: Mst1, Lok and Slk were immunoprecipated from 150 μg, 850 μg and 1 mg of cell lysates respectively; endogenous in cells; host or cells: mouse bone-marrow-derived dendritic cells (BMDC), immunoprecipitate
# T6 sequence (O55098 whole entry): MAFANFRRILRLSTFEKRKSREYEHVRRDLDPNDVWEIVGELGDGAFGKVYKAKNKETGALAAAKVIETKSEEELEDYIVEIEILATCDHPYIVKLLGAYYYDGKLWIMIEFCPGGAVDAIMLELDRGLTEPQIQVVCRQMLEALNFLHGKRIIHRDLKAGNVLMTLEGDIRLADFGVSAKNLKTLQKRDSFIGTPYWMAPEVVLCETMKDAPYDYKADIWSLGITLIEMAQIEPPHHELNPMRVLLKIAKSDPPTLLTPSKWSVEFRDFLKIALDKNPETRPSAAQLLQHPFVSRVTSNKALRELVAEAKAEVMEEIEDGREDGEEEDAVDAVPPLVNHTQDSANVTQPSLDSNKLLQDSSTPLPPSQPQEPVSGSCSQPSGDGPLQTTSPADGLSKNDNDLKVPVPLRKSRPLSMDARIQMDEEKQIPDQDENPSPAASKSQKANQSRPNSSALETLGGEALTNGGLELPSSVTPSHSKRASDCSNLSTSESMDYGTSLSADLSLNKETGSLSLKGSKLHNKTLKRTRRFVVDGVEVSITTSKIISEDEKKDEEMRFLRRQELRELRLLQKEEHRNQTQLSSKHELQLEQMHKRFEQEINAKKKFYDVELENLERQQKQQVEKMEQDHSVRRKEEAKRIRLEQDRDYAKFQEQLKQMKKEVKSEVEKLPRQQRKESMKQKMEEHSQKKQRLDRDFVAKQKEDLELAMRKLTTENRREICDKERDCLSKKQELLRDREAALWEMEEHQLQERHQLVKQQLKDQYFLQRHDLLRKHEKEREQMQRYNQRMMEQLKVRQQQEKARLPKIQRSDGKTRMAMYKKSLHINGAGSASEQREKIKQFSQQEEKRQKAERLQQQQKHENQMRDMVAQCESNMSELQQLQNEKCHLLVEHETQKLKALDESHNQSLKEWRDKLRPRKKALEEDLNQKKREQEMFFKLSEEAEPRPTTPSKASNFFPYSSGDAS
# Description: as §1, §2, §3, §4, §5, §6, §7, §8
# Slk = target: T7, Slk (Mus musculus, UniProt O54988); assay: Activity of Slk immunoprecipitated from BMDC; format: biochemical, C57BL/6 mice; settings: immunoprecipitates treated with 1 μM D1870; resting and LPS-stimulated DC
# T7 construct: Mst1, Lok and Slk were immunoprecipated from 150 μg, 850 μg and 1 mg of cell lysates respectively; endogenous in cells; host or cells: mouse bone-marrow-derived dendritic cells (BMDC), immunoprecipitate
# T7 sequence (O54988 whole entry): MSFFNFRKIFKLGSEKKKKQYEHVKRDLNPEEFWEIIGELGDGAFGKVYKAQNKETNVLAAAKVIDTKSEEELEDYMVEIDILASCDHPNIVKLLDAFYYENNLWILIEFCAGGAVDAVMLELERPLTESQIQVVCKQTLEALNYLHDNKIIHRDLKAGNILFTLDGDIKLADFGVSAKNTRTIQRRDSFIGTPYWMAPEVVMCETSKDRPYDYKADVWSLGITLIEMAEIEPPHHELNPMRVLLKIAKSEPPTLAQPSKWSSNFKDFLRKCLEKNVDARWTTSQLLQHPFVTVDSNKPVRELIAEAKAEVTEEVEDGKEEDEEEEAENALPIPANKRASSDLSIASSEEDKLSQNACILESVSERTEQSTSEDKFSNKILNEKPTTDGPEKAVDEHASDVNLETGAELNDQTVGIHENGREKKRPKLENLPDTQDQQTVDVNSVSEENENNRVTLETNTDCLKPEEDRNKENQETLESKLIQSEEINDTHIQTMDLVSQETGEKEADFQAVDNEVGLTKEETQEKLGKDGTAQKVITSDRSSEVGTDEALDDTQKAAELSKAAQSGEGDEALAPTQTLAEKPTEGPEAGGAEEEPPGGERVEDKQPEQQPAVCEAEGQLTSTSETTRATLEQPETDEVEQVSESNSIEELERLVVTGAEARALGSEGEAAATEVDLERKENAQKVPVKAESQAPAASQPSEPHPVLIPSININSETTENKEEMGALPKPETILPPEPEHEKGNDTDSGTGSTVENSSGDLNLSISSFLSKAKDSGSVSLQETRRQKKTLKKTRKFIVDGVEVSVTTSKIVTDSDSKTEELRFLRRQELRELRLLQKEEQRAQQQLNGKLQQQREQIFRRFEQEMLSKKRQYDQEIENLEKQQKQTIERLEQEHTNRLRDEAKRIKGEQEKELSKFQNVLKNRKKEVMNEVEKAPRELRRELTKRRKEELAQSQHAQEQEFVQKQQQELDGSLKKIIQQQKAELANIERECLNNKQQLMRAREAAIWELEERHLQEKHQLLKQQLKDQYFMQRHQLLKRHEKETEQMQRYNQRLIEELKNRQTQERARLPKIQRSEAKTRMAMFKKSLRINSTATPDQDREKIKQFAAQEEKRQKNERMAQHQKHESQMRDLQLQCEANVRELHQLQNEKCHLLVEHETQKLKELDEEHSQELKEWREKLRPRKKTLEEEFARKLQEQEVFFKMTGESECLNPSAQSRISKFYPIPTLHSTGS
# Description: as §1, §2, §3, §4, §5, §6, §7, §8
# DC = assay: Actin cytoskeleton organisation in DC (confocal microscopy); format: cell-based, C57BL/6 mice; settings: 4 μM D1870 or 2 μM BIX, 1h30 at 37°C
# Description: 2 μMBIXfor1h30at37◦ C. Cells were ﬁxed in 4 % (v/v) paraformalde-hyde for 15 min, permeabilized with 0.1 % Triton for 5 min and stained with phalloidin-Alexa 555 (Invitrogen) and anti-vinculin antibody (Sigma) followed by goat anti-mouse Alexa 488 antibody (invitrogen). Cells were analysed on a Zeiss700 confocal microscope. V inculin (green) and phal-loidin (red). Error bar 10 μm. Images are representative of three inde- […]
# © 2014 The Author(s) This is an Open Access ar ticle distributed under the terms of the Creative Commons Attribution Licence (CC-BY) (http://creativecommons.org/licenses/by/3.0/)c which permits unrestricted use, distribution and reproduction in any medium, provided the original work is properly cited.
# (1 picture or pasted object on this page, not shown here)
smiles,measurement,setting,value
"CC(C)CCN1c2nc(Nc3cc(F)c(O)c(F)c3)ncc2N(C)C(=O)C1C (centres unmarked) [D1870, BI-D1870]",IC50,GST-Mst1,~300 nM
same,IC50,GST-Lok,500 nM
same,IC50,rSlk,250 nM
same,capture of Rsk2 on streptavidin beads,Rsk2,blocked
same,kinase activity of Mst1 immunoprecipitated from DC,Mst1,substantially inhibited
same,kinase activity of Lok immunoprecipitated from DC,Lok,substantially inhibited
same,kinase activity of Slk immunoprecipitated from DC,Slk,significantly blocked
same,"morphological changes in resting DC (cell spreading, focal adhesion, loss of podosomes)",DC,induced morphological changes
